# Assay results taken from patent US20260022143A1, “Cyclic Peptide Inhibitors of IL-23” (JANSSEN PHARMACEUTICA NV, priority 2022, published 2026).
# Counter-ions that a name gives are not always drawn. Starred links: 1 amine or outer side, 2 acyl side, 3 side chain; linkers in the order of their positions; H or OH if unused. Positions of bridges follow the written chain, without caps; N, C: chain ends. Non-standard residues stand in square brackets, D forms with d. Residues, ends and D or L forms follow the SMILES beside them. Groups on a side chain read outwards from the residue. *: point of attachment. Ala(1-Me-3-pyridinium) = C[n+]1cccc(C[C@H](N)C(=O)O)c1; PEG12 = NCCOCCOCCOCCOCCOCCOCCOCCOCCOCCOCCOCCOCCC(=O)O; Trp(7-Me) = Cc1cccc2c(C[C@H](N)C(=O)O)c[nH]c12; PEG9 = NCCOCCOCCOCCOCCOCCOCCOCCOCCOCCC(=O)O; Dab(NMeAc) = CC(=O)N(C)CC[C@H](N)C(=O)O; Ac6c(4,4-F2) = NC1(C(=O)O)CCC(F)(F)CC1; 2Nal = N[C@@H](Cc1ccc2ccccc2c1)C(=O)O; AEF = NCCOc1ccc(C[C@H](N)C(=O)O)cc1; X79 = CN1CCC(N[*:1])(C(=O)[*:2])CC1; PEG6 = NCCOCCOCCOCCOCCOCCOCCC(=O)O; 3Pal = N[C@@H](Cc1cccnc1)C(=O)O; Lys(Me) = CNCCCC[C@H](N)C(=O)O; Pen = CC(C)(S)[C@H](N)C(=O)O; Thp = NC1(C(=O)O)CCOCC1; Me2NCH2CH2 = CN(C)CC*; Tfa = O=C(C(F)(F)F)*; Sar = CNCC(=O)O; CHF2 = FC(F)*; X2 = CNCC*
# Assay: Exposed Polar Surface Area (EPSA)
# Assay type: physicochemical
# Settings: SFC on Chirex 3014 column; sample 1 mM DMSO stock; read-out: EPSA
# Method in brief: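 SFC retention on a Chirex 3014 (S)-valine/(R)-1-(α-naphthyl)ethylamine column, 35 °C, CO2 with MeOH (20 mM ammonium formate) gradient 5–60% at 20%/min, 14 MPa outlet. Retention times converted to EPSA (Å^2) via linear calibration with 8 standards; samples from 1 mM DMSO stock, run in duplicate.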
row,EPSA [A^2],Compound
1,174,CC(=O)NCCCC[C@@H]1NC(=O)[C@H](Cc2c[nH]c3c(C)cccc23)NC(=O)[C@H]([C@@H](C)O)NC(=O)[C@H](CC(N)=O)NC(=O)[C@@H](NC(=O)[C@@H](CCCNC(=N)N)NC(=O)CCOCCOCCOCCOCCOCCOCCNC(C)=O)C(C)(C)SSC(C)(C)[C@@H](C(=O)N[C@@H](Cc2ccc(OCCN)cc2)C(=O)N[C@@H](Cc2ccc3ccccc3c2)C(=O)NC2(C(=O)N[C@@H](CCC(=O)O)C(=O)N[C@@H](CC(N)=O)C(=O)N[C@@H](Cc3cccnc3)C(=O)N(C)CC(N)=O)CCOCC2)NC1=O [compound 37] (Ac-[PEG6][dR][Pen]NT[Trp(7-Me)]K(Ac)[Pen][AEF][2Nal][Thp]EN[3Pal][Sar]-NH2; disulfide 3-8 (inferred))
2,172,CC(=O)NCCCC[C@@H]1NC(=O)[C@H](Cc2c[nH]c3c(C)cccc23)NC(=O)[C@H]([C@@H](C)O)NC(=O)[C@H](CC(N)=O)NC(=O)[C@@H](NC(=O)[C@@H](CCCNC(=N)N)NC(=O)CCOCCOCCOCCOCCOCCOCCOCCOCCOCCOCCOCCOCCNC(C)=O)C(C)(C)SSC(C)(C)[C@@H](C(=O)N[C@@H](Cc2ccc(OCCN)cc2)C(=O)N[C@@H](Cc2ccc3ccccc3c2)C(=O)NC2(C(=O)N[C@@H](CCC(=O)O)C(=O)N[C@@H](CC(N)=O)C(=O)N[C@@H](Cc3cccnc3)C(=O)N(C)CC(N)=O)CCOCC2)NC1=O [compound 38] (Ac-[PEG12][dR][Pen]NT[Trp(7-Me)]K(Ac)[Pen][AEF][2Nal][Thp]EN[3Pal][Sar]-NH2; disulfide 3-8)
3,156,CC(=O)NCCCC[C@@H]1NC(=O)[C@H](Cc2c[nH]c3c(C)cccc23)NC(=O)[C@H]([C@@H](C)O)NC(=O)[C@H](CC(N)=O)NC(=O)[C@@H](NC(=O)[C@@H](CCCCNC(=O)CCOCCOCCOCCOCCOCCOCCOCCOCCOCCOCCOCCOCCNC(C)=O)NC(C)=O)C(C)(C)SSC(C)(C)[C@@H](C(=O)N[C@@H](Cc2ccc(OCCN)cc2)C(=O)N[C@@H](Cc2ccc3ccccc3c2)C(=O)NC2(C(=O)N[C@@H](CCCCNC(C)=O)C(=O)N[C@@H](CC(N)=O)C(=O)N[C@@H](Cc3cccnc3)C(=O)N(C)CC(N)=O)CCOCC2)NC1=O [compound 40] (Ac-[dK]([PEG12-Ac])[Pen]NT[Trp(7-Me)]K(Ac)[Pen][AEF][2Nal][Thp]K(Ac)N[3Pal][Sar]-NH2; disulfide 2-7)
4,173,CC(=O)NCCCC[C@@H]1NC(=O)[C@H](Cc2c[nH]c3c(C)cccc23)NC(=O)[C@H]([C@@H](C)O)NC(=O)[C@H](CC(N)=O)NC(=O)[C@@H](NC(=O)[C@@H](CCCNC(=N)N)NC(=O)CCOCCOCCOCCOCCOCCOCCOCCOCCOCCNC(C)=O)C(C)(C)SSC(C)(C)[C@@H](C(=O)N[C@@H](Cc2ccc(OCCN)cc2)C(=O)N[C@@H](Cc2ccc3ccccc3c2)C(=O)NC2(C(=O)N[C@@H](CCC(=O)O)C(=O)N[C@@H](CC(N)=O)C(=O)N[C@@H](Cc3cccnc3)C(=O)N(C)CC(N)=O)CCOCC2)NC1=O [compound 43] (Ac-[PEG9][dR][Pen]NT[Trp(7-Me)]K(Ac)[Pen][AEF][2Nal][Thp]EN[3Pal][Sar]-NH2; disulfide 3-8)
5,154,CNCCOc1ccc(C[C@H](NC(=O)[C@H]2NC(=O)[C@H](CCCCNC(C)=O)NC(=O)[C@H](Cc3c[nH]c4c(C)cccc34)NC(=O)[C@H]([C@@H](C)O)NC(=O)[C@H](CC(N)=O)NC(=O)[C@@H](NC(C)=O)C(C)(C)SSC2(C)C)C(=O)N[C@@H](Cc2ccc3ccccc3c2)C(=O)NC2(C(=O)N[C@@H](CCCCNC(C)=O)C(=O)N[C@@H](CC(N)=O)C(=O)N[C@@H](Cc3cccnc3)C(=O)N(C)CC(N)=O)CCOCC2)cc1 [compound 47] (Ac-[Pen]NT[Trp(7-Me)]K(Ac)[Pen]Y(X2)[2Nal][Thp]K(Ac)N[3Pal][Sar]-NH2; disulfide 1-6 (inferred))
6,184,CNC(=O)C[C@H](NC(=O)[C@H](CCCCNC(C)=O)NC(=O)C1(NC(=O)[C@H](Cc2ccc3ccccc3c2)NC(=O)[C@H](Cc2ccc(OCCN)cc2)NC(=O)[C@H]2NC(=O)[C@H](CCCCNC(C)=O)NC(=O)[C@H](Cc3c[nH]c4c(C)cccc34)NC(=O)[C@H]([C@@H](C)O)NC(=O)[C@H](CC(N)=O)NC(=O)[C@@H](NC(C)=O)C(C)(C)SSC2(C)C)CCOCC1)C(=O)N[C@@H](Cc1cccnc1)C(=O)N(C)CC(N)=O [compound 48] (Ac-[Pen]NT[Trp(7-Me)]K(Ac)[Pen][AEF][2Nal][Thp]K(Ac)D(NHMe)[3Pal][Sar]-NH2; disulfide 1-6)
7,164,CC(=O)NCCCC[C@@H]1NC(=O)[C@H](Cc2c[nH]c3c(C)cccc23)NC(=O)[C@H]([C@@H](C)O)NC(=O)[C@H](CC(N)=O)NC(=O)[C@@H](NC(=O)C(F)(F)F)C(C)(C)SSC(C)(C)[C@@H](C(=O)N[C@@H](Cc2ccc(OCCN)cc2)C(=O)N[C@@H](Cc2ccc3ccccc3c2)C(=O)NC2(C(=O)N[C@@H](CCCCNC(C)=O)C(=O)N[C@@H](CC(N)=O)C(=O)N[C@@H](Cc3cccnc3)C(=O)N(C)CC(N)=O)CCOCC2)NC1=O [compound 49] (Tfa-[Pen]NT[Trp(7-Me)]K(Ac)[Pen][AEF][2Nal][Thp]K(Ac)N[3Pal][Sar]-NH2; disulfide 1-6)
8,162,"CC(=O)NCCCC[C@@H]1NC(=O)[C@H](Cc2c[nH]c3c(C)cccc23)NC(=O)[C@H]([C@@H](C)O)NC(=O)[C@H](CC(N)=O)NC(=O)[C@@H](NC(=O)C(F)(F)F)C(C)(C)SSC(C)(C)[C@@H](C(=O)N[C@@H](Cc2ccc(OCCN)cc2)C(=O)N[C@@H](Cc2ccc3ccccc3c2)C(=O)NC2(C(=O)N[C@@H](CCCCNC(C)=O)C(=O)N[C@@H](CC(N)=O)C(=O)N[C@@H](Cc3cccnc3)C(=O)N(C)CC(N)=O)CCC(F)(F)CC2)NC1=O [compound 50] (Tfa-[Pen]NT[Trp(7-Me)]K(Ac)[Pen][AEF][2Nal][Ac6c(4,4-F2)]K(Ac)N[3Pal][Sar]-NH2; disulfide 1-6 (inferred))"
9,156,CC(=O)NCCCC[C@H](NC(=O)C1(NC(=O)[C@H](Cc2ccc3ccccc3c2)NC(=O)[C@H](Cc2ccc(OCCN)cc2)NC(=O)[C@H]2NC(=O)[C@H](CCN(C)C(C)=O)NC(=O)[C@H](Cc3c[nH]c4c(C)cccc34)NC(=O)[C@H]([C@@H](C)O)NC(=O)[C@H](CC(N)=O)NC(=O)[C@@H](NC(=O)C(F)(F)F)C(C)(C)SSC2(C)C)CCOCC1)C(=O)N[C@@H](CC(N)=O)C(=O)N[C@@H](Cc1ccc[n+](C)c1)C(=O)N(C)CC(N)=O [compound 51] (Tfa-[Pen]NT[Trp(7-Me)][Dab(NMeAc)][Pen][AEF][2Nal][Thp]K(Ac)N[Ala(1-Me-3-pyridinium)][Sar]-NH2; disulfide 1-6)
10,155,CC(=O)NCCCC[C@@H]1NC(=O)[C@H](Cc2c[nH]c3c(C)cccc23)NC(=O)[C@H]([C@@H](C)O)NC(=O)[C@H](CC(N)=O)NC(=O)[C@@H](NC(=O)C(F)(F)F)C(C)(C)SSC(C)(C)[C@@H](C(=O)N[C@@H](Cc2ccc(OCCN(C)C)cc2)C(=O)N[C@@H](Cc2ccc3ccccc3c2)C(=O)NC2(C(=O)N[C@@H](CCCCNC(C)=O)C(=O)N[C@@H](CC(N)=O)C(=O)N[C@@H](Cc3cccnc3)C(=O)N(C)CC(N)=O)CCOCC2)NC1=O [compound 53] (Tfa-[Pen]NT[Trp(7-Me)]K(Ac)[Pen]Y(Me2NCH2CH2)[2Nal][Thp]K(Ac)N[3Pal][Sar]-NH2; disulfide 1-6 (inferred))
11,156,CC(=O)NCCCC[C@@H]1NC(=O)[C@H](Cc2c[nH]c3c(C)cccc23)NC(=O)[C@H]([C@@H](C)O)NC(=O)[C@H](CC(N)=O)NC(=O)[C@@H](NC(=O)C(F)(F)F)C(C)(C)SSC(C)(C)[C@@H](C(=O)N[C@@H](Cc2ccc(OC(F)F)cc2)C(=O)N[C@@H](Cc2ccc3ccccc3c2)C(=O)NC2(C(=O)N[C@@H](CCCCNC(C)=O)C(=O)N[C@@H](CC(N)=O)C(=O)N[C@@H](Cc3cccnc3)C(=O)N(C)CC(N)=O)CCOCC2)NC1=O [compound 54] (Tfa-[Pen]NT[Trp(7-Me)]K(Ac)[Pen]Y(CHF2)[2Nal][Thp]K(Ac)N[3Pal][Sar]-NH2; disulfide 1-6 (inferred))
12,159,CC(=O)NCCCC[C@@H]1NC(=O)[C@H](Cc2c[nH]c3c(C)cccc23)NC(=O)[C@H]([C@@H](C)O)NC(=O)[C@H](CC(N)=O)NC(=O)[C@@H](NC(=O)C(F)(F)F)C(C)(C)SSC(C)(C)[C@@H](C(=O)N[C@@H](Cc2ccc(OCCN)cc2)C(=O)N[C@@H](Cc2ccc3ccccc3c2)C(=O)NC2(C(=O)N[C@@H](CCCCNC(C)=O)C(=O)N[C@@H](CC(N)=O)C(=O)N[C@@H](Cc3cccnc3)C(=O)N(C)CC(N)=O)CCN(C)CC2)NC1=O [compound 55] (Tfa-[Pen]NT[Trp(7-Me)]K(Ac)[Pen][AEF][2Nal][X79]K(Ac)N[3Pal][Sar]-NH2; disulfide 1-6 (inferred))
13,166,CC(=O)NCCCC[C@@H]1NC(=O)[C@H](Cc2c[nH]c3c(C)cccc23)NC(=O)[C@H]([C@@H](C)O)NC(=O)[C@H](CC(N)=O)NC(=O)[C@@H](NC(C)=O)C(C)(C)SSC(C)(C)[C@@H](C(=O)N[C@@H](Cc2ccc(OCCN)cc2)C(=O)N[C@@H](Cc2ccc3ccccc3c2)C(=O)NC2(C(=O)N[C@@H](CCCCN(C)C(C)=O)C(=O)N[C@@H](CC(N)=O)C(=O)N[C@@H](Cc3cccnc3)C(=O)N(C)CC(N)=O)CCOCC2)NC1=O [compound 59] (Ac-[Pen]NT[Trp(7-Me)]K(Ac)[Pen][AEF][2Nal][Thp][Lys(Me)](Ac)N[3Pal][Sar]-NH2; disulfide 1-6 (inferred))
14,159,CC(=O)NCCCC[C@H](NC(=O)C1(NC(=O)[C@H](Cc2ccc3ccccc3c2)NC(=O)[C@H](Cc2ccc(OCCN)cc2)NC(=O)[C@H]2NC(=O)[C@H](CCC(=O)N(C)C)NC(=O)[C@H](Cc3c[nH]c4c(C)cccc34)NC(=O)[C@H]([C@@H](C)O)NC(=O)[C@H](CC(N)=O)NC(=O)[C@@H](NC(=O)C(F)(F)F)C(C)(C)SSC2(C)C)CCOCC1)C(=O)N[C@@H](CC(N)=O)C(=O)N[C@@H](Cc1cccnc1)C(=O)N(C)CC(N)=O [compound 61] (Tfa-[Pen]NT[Trp(7-Me)]E(NMe2)[Pen][AEF][2Nal][Thp]K(Ac)N[3Pal][Sar]-NH2; disulfide 1-6 (inferred))
